molecular target: T1, Tyrosinase (Agaricus bisporus, UniProt O42713)
T1 sequence (O42713 whole entry): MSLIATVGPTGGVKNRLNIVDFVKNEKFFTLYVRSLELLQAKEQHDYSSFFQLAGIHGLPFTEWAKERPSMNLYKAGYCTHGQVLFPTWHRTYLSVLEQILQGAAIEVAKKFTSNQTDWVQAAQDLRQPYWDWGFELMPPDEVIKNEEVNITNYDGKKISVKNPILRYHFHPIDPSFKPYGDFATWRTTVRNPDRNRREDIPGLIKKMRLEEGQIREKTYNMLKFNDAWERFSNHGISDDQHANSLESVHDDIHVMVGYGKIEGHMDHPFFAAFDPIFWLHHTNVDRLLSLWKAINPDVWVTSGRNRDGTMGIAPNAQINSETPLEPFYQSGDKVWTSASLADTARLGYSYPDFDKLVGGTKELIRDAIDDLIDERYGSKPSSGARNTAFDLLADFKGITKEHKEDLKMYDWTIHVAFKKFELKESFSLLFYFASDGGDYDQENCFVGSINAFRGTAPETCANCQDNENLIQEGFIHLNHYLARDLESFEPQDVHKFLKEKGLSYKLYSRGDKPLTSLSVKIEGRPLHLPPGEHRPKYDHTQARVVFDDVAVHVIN
Description: Inhibition of mushroom tyrosinase after 10 mins by L-DOPA oxidation assay

First: COc1cc(O)c(C=O)cc1Cc1cc(C=O)c(O)cc1OC
Second: O=Cc1cc(Cc2cc(C=O)c(O)cc2O)c(O)cc1O
The IC50 of the first is 1.5-fold higher: 117 µM for the first, 76 µM for the second.

`COc1cc(Cc2cc(C=O)c(O)c(OC)c2)cc(C=O)c1O` and `O=Cc1cc(Cc2cc(O)c(O)c(C=O)c2)cc(O)c1O` are within 1.5-fold of each other in IC50: 695 µM for the first, 523 µM for the second.

`O=Cc1cc(Cc2ccc(O)c(C=O)c2)ccc1O` was tested, and the IC50 was 74 µM.

molecular target: T1, Tyrosinase; test: Inhibition of mushroom tyrosinase by Lineweaver-Burke double reciprocal plot analysis

`O=Cc1cc(Cc2ccc(O)c(C=O)c2)ccc1O` gave a Ki of 48 µM.
